Reference: PubChem BioAssay AID328 (DTP/NCI, 2004)
“And” between values parts separate entries of the source, which are not always exact repeats. Equal values may be shown once. Toxic doses and inconclusive results are not listed.

Tested on: BDF1 mice, P388 leukemia ip, median survival T/C
Test: NCI In Vivo Anticancer Drug Screen. Data for tumor model P388 Leukemia (intraperitoneal) in B6D2F1 (BDF1) mice
Settings: endpoint: median survival time, higher = longer survival
How it was run: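 Vehicle-dosed animals serve as the reference; survival of compound-dosed, tumour-implanted mice is divided by it.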

[1] = dose: 100.0 mg/kg/injection, schedule: Q04DX003 (ip), vehicle: saline sonified
[2] = dose: 200.0 mg/kg/injection, schedule: Q04DX003 (ip), vehicle: saline sonified
[3] = dose: 400.0 mg/kg/injection, schedule: Q04DX003 (ip), vehicle: saline sonified
[4] = dose: 100.0 mg/kg/injection, schedule: Q04DX003 (ip), vehicle: saline with Tween-80
[5] = dose: 200.0 mg/kg/injection, schedule: Q04DX003 (ip), vehicle: saline with Tween-80
[6] = dose: 400.0 mg/kg/injection, schedule: Q04DX003 (ip), vehicle: saline with Tween-80
[7] = dose: 200.0 mg/kg/injection, schedule: Q01DX009 (ip), vehicle: Klucel (hydroxypropylcellulose) (HPC)
[8] = dose: 400.0 mg/kg/injection, schedule: Q01DX009 (ip), vehicle: Klucel (hydroxypropylcellulose) (HPC)
[9] = dose: 100.0 mg/kg/injection, schedule: Q04DX003 (ip), vehicle: Klucel (hydroxypropylcellulose) (HPC)
[10] = dose: 200.0 mg/kg/injection, schedule: Q04DX003 (ip), vehicle: Klucel (hydroxypropylcellulose) (HPC)
[11] = dose: 50.0 mg/kg/injection, schedule: Q04DX003 (ip), vehicle: saline with Tween-80
[12] = dose: 50.0 mg/kg/injection, schedule: Q01DX009 (ip), vehicle: saline with Tween-80
[13] = dose: 50.0 mg/kg/injection, schedule: Q04DX003 (ip), vehicle: Klucel (hydroxypropylcellulose) (HPC)
[14] = dose: 100.0 mg/kg/injection, schedule: Q04DX003 (ip), vehicle: saline
[15] = dose: 200.0 mg/kg/injection, schedule: Q04DX003 (ip), vehicle: saline
[16] = dose: 400.0 mg/kg/injection, schedule: Q04DX003 (ip), vehicle: saline
[17] = dose: 200.0 mg/kg/injection, schedule: Q01DX009 (ip), vehicle: saline with Tween-80
[18] = dose: 400.0 mg/kg/injection, schedule: Q04DX003 (ip), vehicle: Klucel (hydroxypropylcellulose) (HPC)

NC(=O)SCC(=O)Nc1ccc2ncccc2c1
T/C (dose: 88.0 mg/kg/injection, schedule: Q01DX009 (ip), vehicle: saline): 122 % of control | T/C [1]: 104 % of control | T/C (dose: 132.0 mg/kg/injection, schedule: Q01DX009 (ip), vehicle: saline): 118 % of control | T/C [2]: 100 % of control | T/C [3]: 100 % of control

CC(C)C(Br)C(=O)NCC(=O)NCC(=O)O (stereo not drawn)
T/C [4]: 104 % of control | T/C [5]: 109 % of control | T/C [6]: 100 % of control

CCOC(=O)/C=C(/C)Sc1cc(O)c2ccccc2c1O
T/C (dose: 1.56 mg/kg/injection, schedule: Q01DX009 (ip), vehicle: saline with Tween-80): 101 % of control and 124 % of control | T/C (dose: 3.13 mg/kg/injection, schedule: Q01DX009 (ip), vehicle: saline with Tween-80): 119 % of control and 120 % of control | T/C (dose: 6.25 mg/kg/injection, schedule: Q01DX009 (ip), vehicle: saline with Tween-80): 124 % of control | T/C (dose: 12.5 mg/kg/injection, schedule: Q01DX009 (ip), vehicle: saline with Tween-80): 114 % of control

S=C1SC2(CCCCCC2)NC2=C1CCCCC2
T/C (dose: 100.0 mg/kg/injection, schedule: Q01DX009 (ip), vehicle: Klucel (hydroxypropylcellulose) (HPC)): 106 % of control | T/C [7]: 103 % of control | T/C [8]: 105 % of control

COC(=O)c1cc(=O)n(-c2cccc(F)c2)c(SC)n1
T/C [9]: 114 % of control | T/C [10]: 114 % of control

O=C(O)c1cc(N=Nc2ccccc2)ccc1O
T/C [11]: 104 % of control | T/C [4]: 100 % of control

C/C(=N/O)[c-]1[c-][c-][c-][c-]1.[Fe].[c-]1[c-][c-][cH-][c-]1
T/C (dose: 25.0 mg/kg/injection, schedule: Q04DX003 (ip), vehicle: saline with Tween-80): 100 % of control | T/C [11]: 109 % of control | T/C [4]: 109 % of control

CC(=O)c1ccccc1OS(=O)(=O)c1ccc([N+](=O)[O-])cc1
T/C (dose: 100.0 mg/kg/injection, schedule: Q01DX009 (ip), vehicle: saline sonified): 95 % of control | T/C [1]: 100 % of control | T/C (dose: 200.0 mg/kg/injection, schedule: Q01DX009 (ip), vehicle: saline sonified): 104 % of control | T/C [2]: 90 % of control | T/C [3]: 100 % of control

CC(=N\O)/C(C)=N/O.CC(=N\O)/C(C)=N/O.O=C(O)C1CC[N-]CC1.O=C(O)C1CC[N-]CC1.O=C(O)C1CC[N-]CC1.O=C(O)C1CC[N-]CC1.[Cl-].[Cl-].[Cl][Rh][Cl].[Rh+3]
T/C (dose: 25.0 mg/kg/injection, schedule: Q01DX009 (ip), vehicle: water): 100 % of control | T/C (dose: 50.0 mg/kg/injection, schedule: Q01DX009 (ip), vehicle: water): 94 % of control | T/C (dose: 200.0 mg/kg/injection, schedule: Q01DX009 (ip), vehicle: water): 94 % of control | T/C (dose: 400.0 mg/kg/injection, schedule: Q01DX009 (ip), vehicle: water): 88 % of control

N#Cc1c(SCc2ccc(Cl)cc2)nsc1Nc1ccc(Cl)cc1
T/C [12]: 108 % of control

C[P+](Cc1ccc([N+](=O)[O-])cc1)(c1ccccc1)c1ccccc1
T/C (dose: 1.56 mg/kg/injection, schedule: Q01DX009 (ip), vehicle: Klucel (hydroxypropylcellulose) (HPC)): 96 % of control | T/C (dose: 3.12 mg/kg/injection, schedule: Q01DX009 (ip), vehicle: Klucel (hydroxypropylcellulose) (HPC)): 88 % of control | T/C (dose: 12.5 mg/kg/injection, schedule: Q01DX009 (ip), vehicle: Klucel (hydroxypropylcellulose) (HPC)): 89 % of control | T/C (dose: 12.5 mg/kg/injection, schedule: Q04DX003 (ip), vehicle: Klucel (hydroxypropylcellulose) (HPC)): 100 % of control | T/C [13]: 104 % of control

O=C1NC(O)CCN1C1OC(CO)C(O)C1O (stereo not drawn)
T/C (dose: 50.0 mg/kg/injection, schedule: Q01DX009 (ip), vehicle: saline): 89 % of control | T/C (dose: 100.0 mg/kg/injection, schedule: Q01DX009 (ip), vehicle: saline): 100 % of control and 113 % of control | T/C [14]: 116 % of control | T/C (dose: 200.0 mg/kg/injection, schedule: Q01DX009 (ip), vehicle: saline): 101 % of control and 104 % of control | T/C [15]: 108 % of control | T/C (dose: 400.0 mg/kg/injection, schedule: Q01DX009 (ip), vehicle: saline): 100 % of control and 117 % of control | T/C [16]: 95 % of control

CC(C)=CCC/C(C)=C/CN1C(=O)c2ccccc2C1=O
T/C (dose: 100.0 mg/kg/injection, schedule: Q01DX009 (ip), vehicle: saline with Tween-80): 92 % of control | T/C [4]: 87 % of control | T/C [17]: 92 % of control | T/C [5]: 96 % of control | T/C (dose: 400.0 mg/kg/injection, schedule: Q01DX009 (ip), vehicle: saline with Tween-80): 108 % of control | T/C [6]: 94 % of control

CCCCCCCCCC(=O)NN
T/C (dose: 50.0 mg/kg/injection, schedule: Q01DX001 (ip), vehicle: saline sonified): 95 % of control | T/C (dose: 100.0 mg/kg/injection, schedule: Q01DX001 (ip), vehicle: saline sonified): 104 % of control | T/C (dose: 200.0 mg/kg/injection, schedule: Q01DX001 (ip), vehicle: saline sonified): 104 % of control

Cc1cc(C)cc(CCc2cc(C)cc(C)c2)c1
T/C [9]: 100 % of control | T/C [7]: 109 % of control | T/C [10]: 90 % of control | T/C [8]: 100 % of control | T/C [18]: 95 % of control

Nc1ccccc1CCCC(=O)O
T/C [14]: 100 % of control | T/C [15]: 100 % of control | T/C [16]: 104 % of control

OCCOCCN1CCN(CC/C=C2\c3ccccc3Sc3ccc(C(F)(F)F)cc32)CC1
T/C (dose: 0.75 mg/kg/injection, schedule: Q01DX009 (ip), vehicle: saline): 95 % of control | T/C (dose: 1.5 mg/kg/injection, schedule: Q01DX009 (ip), vehicle: saline): 90 % of control | T/C (dose: 3.0 mg/kg/injection, schedule: Q01DX009 (ip), vehicle: saline): 95 % of control

CCNC(=S)N/N=C/c1ccc[nH]1
T/C (dose: 15.0 mg/kg/injection, schedule: Q01DX009 (ip), vehicle: saline with Tween-80): 104 % of control | T/C (dose: 30.0 mg/kg/injection, schedule: Q01DX009 (ip), vehicle: saline with Tween-80): 88 % of control | T/C (dose: 60.0 mg/kg/injection, schedule: Q01DX009 (ip), vehicle: saline with Tween-80): 101 % of control

CC(=O)Nc1ccc(NC(=O)NCCCl)cc1
T/C [13]: 110 % of control | T/C (dose: 59.0 mg/kg/injection, schedule: Q01DX009 (ip), vehicle: Klucel (hydroxypropylcellulose) (HPC)): 100 % of control | T/C (dose: 88.0 mg/kg/injection, schedule: Q01DX009 (ip), vehicle: Klucel (hydroxypropylcellulose) (HPC)): 100 % of control | T/C [9]: 110 % of control | T/C (dose: 133.0 mg/kg/injection, schedule: Q01DX009 (ip), vehicle: Klucel (hydroxypropylcellulose) (HPC)): 115 % of control | T/C (dose: 133.0 mg/kg/injection, schedule: Q04DX003 (ip), vehicle: Klucel (hydroxypropylcellulose) (HPC)): 90 % of control and 100 % of control | T/C [10]: 90 % of control and 100 % of control | T/C (dose: 300.0 mg/kg/injection, schedule: Q04DX003 (ip), vehicle: Klucel (hydroxypropylcellulose) (HPC)): 90 % of control

O=C(Nc1ccc(NC(=O)Nc2cccc(C3=NCCCN3)c2)cc1)Nc1ccc(C2=NCCCN2)cc1
T/C (dose: 6.6 mg/kg/injection, schedule: Q01DX009 (ip), vehicle: saline with Tween-80): 154 % of control | T/C (dose: 10.0 mg/kg/injection, schedule: Q01DX009 (ip), vehicle: saline with Tween-80): 181 % of control

C1SCSCS1
T/C (dose: 75.0 mg/kg/injection, schedule: Q01DX009 (ip), vehicle: Klucel (hydroxypropylcellulose) (HPC)): 118 % of control | T/C (dose: 100.0 mg/kg/injection, schedule: Q01DX001 (ip), vehicle: other): 109 % of control | T/C [9]: 100 % of control | T/C (dose: 150.0 mg/kg/injection, schedule: Q01DX009 (ip), vehicle: Klucel (hydroxypropylcellulose) (HPC)): 100 % of control | T/C (dose: 200.0 mg/kg/injection, schedule: Q01DX001 (ip), vehicle: other): 90 % of control | T/C [10]: 109 % of control | T/C (dose: 300.0 mg/kg/injection, schedule: Q01DX009 (ip), vehicle: Klucel (hydroxypropylcellulose) (HPC)): 113 % of control | T/C (dose: 400.0 mg/kg/injection, schedule: Q01DX001 (ip), vehicle: other): 100 % of control | T/C [18]: 113 % of control

Cn1c(=O)c2c(c3ccccc31)Oc1oc3ccc4ccccc4c3c(=O)c1C2
T/C [12]: 91 % of control | T/C [17]: 94 % of control
